# Entries after “also recorded” stand apart in the source; their conditions may differ.
# Columns and labels:
# [1] = system: Atoh1-iPSCs; experiment: Dox-inducible Atoh1 expression measured by qRT-PCR; type: cell-based, human; conditions: Dox treatment for 2 days
# Description: Total RNA was extracted using the RNeasy Mini kit (Qiagen). Reverse transcription was performed using MuLV reverse transcriptase (Applied biosystems) and Oligo(dT) primers. qRT-PCR was performed using SYBR Green PCR Master Mix (Applied Biosystems) and IQ5 RT-PCR detection system (Bio-rad). Relative expression of each gene was normalized to the 18S rRNA. To further optimize the Atoh1-mediated differentiation strategy, we asked what is the minimum time of Atoh1 induction for successful neuronal conversion. Equal numbers of Atoh1-iPSCs received different durations of Dox treatment (1 to 5 days), after which cells were replated and allowed to mature in vitro for additional 30 days. […] In contrast, Dox treatment for 2 to 5 days successfully differentiated iPSCs into neurons expressing TUJ1 and MAP2 (FIG. 9). […] To compare the level of neurogenic signaling before and after silencing ectopic Atoh1 expression, we treated Atoh1-iPSCs with Dox for 2 days and then withdrew Dox for 3 days (FIGS. 2J and 2K).
# [2] = system: Atoh1-induced neurons; type: cell-based, human
# [3] = system: Atoh1-induced neurons; experiment: Current-clamp recording, negative current injection: hyperpolarization sag and rebound action potentials; type: cell-based, human; conditions: ML252 5 μM
# [4] = system: Atoh1-induced DA neurons; type: cell-based, human
# [5] = system: Atoh1-induced DA neurons derived from human iPSCs; type: cell-based; conditions: 40 μM and 100 μM for 15 minutes
# Description: Neuron culture medium was changed to neurobasal medium before treatment. 6-OHDA was freshly prepared in vehicle solution (ascorbic acid (0.15%) in H2O) and quickly added to the neuron culture. Control cells were treated with vehicle solution alone. After 15 min at 37° C., the medium was removed and neurons were gently washed twice with Neurobasal Medium. 200 μl neuron culture medium (Neurobasal Medium with B27 Supplement) was added to each well and further incubated for 24 h. Cytotoxicity induced by 6-OHDA was measured using LDH Cytotoxicity Detection Kit (Roche) following the manufacturer's protocol. The percentage cytotoxicity was calculated using the following equation: Cytotoxicity (%)=(Experiment Value−Low Control)/(High Control−Low Control)×100. (Low control: culture medium; High control: total cell lysate).
# 6-hydroxydopamine (6-OHDA) is a neurotoxin widely used to induce neurotoxicity both in vivo and in vitro to model DA neuron loss in PD pathogenesis. […] Here, we tested the response of Atoh1-induced DA neurons to 6-OHDA treatment. […] Thus, Atoh1-induced DA neurons derived from human iPSCs are sensitive to 6-OHDA treatment at a concentration that selectively damages primary DA neurons isolated from substantia nigra.
# [6] = system: primary DA neurons from substantia nigra; conditions: 6-OHDA 40 μM; cited from earlier work
smiles,measurement,setting,value
"C[C@H]1c2cccc(O)c2C(=O)C2=C(O)[C@]3(O)C(=O)C(C(N)=O)=C(O)[C@@H](N(C)C)[C@@H]3[C@@H](O)[C@@H]21 [Dox, Doxycycline]",Atoh1 up-regulation by qRT-PCR versus control,[1],49 fold
Nc1ccncc1 [4-AP],effect on potassium current,"[2]; 4-AP 25 μM, together with TTX, voltage-clamp",significantly attenuated
CC[C@H](C(=O)Nc1ccccc1N1CCCC1)c1ccccc1 [ML252],effect on hyperpolarization sag and rebound action potentials,[3],dampened; also recorded: blocked
"NC1=N[C@H](O)[C@H]2[C@H]3O[C@]4(O)O[C@@H]([C@@H](O)[C@@]2(N1)[C@@H]4O)[C@]3(O)CO [TTX, tetrodotoxin]",effect on train of evoked action potentials,[4],suppressed; also recorded: completely blocked
same,time to recovery of action potentials after TTX washout,[4],17 min
same,effect on sodium current,[2],significantly attenuated
"NCCc1cc(O)c(O)cc1O [6-OHDA, 6-hydroxydopamine]",neuron death by LDH Cytotoxicity assay,[5]; LDH after 24 h,neuron death was also confirmed
same,"morphological signs of neuron death (cell condensation, neurite fragmentation)","[5]; differentiation day 36, read 24 hours after treatment",caused morphological signs of neuron death
same,DA neuron loss in rat substantia nigra neuron cultures,[6],causes selective DA neuron loss without affecting GABA neurons

# Reference: patent publication US11104881B2, “Method for highly efficient conversion of human stem cells to lineage-specific neurons” (THE JOHNS HOPKINS UNIVERSITY, priority 2013, dated 2021)
